{
  "source": "ChEMBL document CHEMBL1201862",
  "about": "“PubChem BioAssay data set” (2004)",
  "key": {"[1]": {"experiment": "off-target signal loss in HeLa-CEM21 co-culture – HeLa F-luc CTL cells, cherry-picked, counter-screen for HIV-1 Env fusion inhibitor project, dose response (AID 652040);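 note: potency for signal decrease marking cytotoxic or nonspecific inhibition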", "format": "functional, cell-based"}, "[2]": {"experiment": "ZM109 Env clade C HIV-1 fusion inhibitors, dose response, HeLa effector, CEM target cells, luciferase, cherry-pick (AID 652058)", "format": "functional, cell-based"}, "[3]": {"experiment": "inhibitors of clade B AD8 Env fusion, dose response, cell-based, cherry-pick (AID 652062);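 note: potency is for inhibitors of fusion seen as a drop in luminescence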", "format": "functional"}, "[4]": {"target": "Mu-type opioid receptor (Homo sapiens, UniProt P35372)", "sequence (P35372 whole entry)": "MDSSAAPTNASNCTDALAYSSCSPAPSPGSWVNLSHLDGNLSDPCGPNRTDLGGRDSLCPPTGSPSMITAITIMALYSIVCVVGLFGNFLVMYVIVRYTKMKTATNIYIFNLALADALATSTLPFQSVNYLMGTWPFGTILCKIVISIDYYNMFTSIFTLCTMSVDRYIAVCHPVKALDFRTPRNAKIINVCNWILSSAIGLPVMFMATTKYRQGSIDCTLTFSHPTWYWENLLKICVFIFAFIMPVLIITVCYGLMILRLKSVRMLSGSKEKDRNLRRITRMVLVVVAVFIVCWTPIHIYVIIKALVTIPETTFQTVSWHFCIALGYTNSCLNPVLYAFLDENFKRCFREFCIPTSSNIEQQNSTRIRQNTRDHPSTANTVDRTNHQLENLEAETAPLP", "format": "functional, cell-based"}, "[5]": {"target": "5-hydroxytryptamine receptor 2A (Mus musculus, UniProt P35363)", "sequence (P35363 whole entry)": "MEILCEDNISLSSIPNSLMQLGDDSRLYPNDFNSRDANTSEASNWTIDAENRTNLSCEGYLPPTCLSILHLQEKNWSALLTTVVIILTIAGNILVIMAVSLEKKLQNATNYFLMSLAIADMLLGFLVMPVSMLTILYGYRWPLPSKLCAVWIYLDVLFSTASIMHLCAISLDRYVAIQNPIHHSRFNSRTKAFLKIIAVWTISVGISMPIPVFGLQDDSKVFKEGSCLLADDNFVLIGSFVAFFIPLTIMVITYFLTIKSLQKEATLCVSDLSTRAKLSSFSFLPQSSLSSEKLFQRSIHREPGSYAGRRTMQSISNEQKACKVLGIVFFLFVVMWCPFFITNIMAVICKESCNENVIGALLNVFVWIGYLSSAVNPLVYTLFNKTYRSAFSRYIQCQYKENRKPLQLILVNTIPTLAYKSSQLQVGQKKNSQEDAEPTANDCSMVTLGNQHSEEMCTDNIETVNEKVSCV", "format": "functional, cell-based"}, "[6]": {"experiment": "Luminescence Cell-Based Dose Retest to Confirm Inhibitors of Cancer Stem Cells. [Related pubchem assays (depositor defined):AID2717, AID2721]", "format": "functional", "conditions": "Homo sapiens"}, "[7]": {"experiment": "inhibitors of HIV Env-driven cell fusion, dose response, cherry-pick (AID 652057)", "format": "functional, cell-based"}, "[8]": {"system": "BJ", "experiment": "cells", "format": "functional, cell-based", "conditions": "Homo sapiens"}, "[9]": {"system": "BJ", "experiment": "cytotoxicity toward Ras-transformed BJeLR fibroblasts, dose response, cell-based, alamar blue fluorescence, cherrypicked samples (AID 2631);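 note: confirmatory dose-response assay in RAS-dependent BJ fibroblasts engineered with TERT, LT and ST, with cytotoxicity read by fluorescence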", "format": "functional", "conditions": "Homo sapiens"}, "[10]": {"system": "BJ", "experiment": "cytotoxicity toward BJ-TERT-LT-ST fibroblasts, dose response, cell-based, RAS-independent, luminescence (AID 1935);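 note: BJ fibroblasts immortalized with TERT plus LT and ST oncogenes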", "format": "functional", "conditions": "Homo sapiens"}, "[11]": {"target": "Paired box protein Pax-8 (Homo sapiens, UniProt Q06710)", "sequence (Q06710 whole entry)": "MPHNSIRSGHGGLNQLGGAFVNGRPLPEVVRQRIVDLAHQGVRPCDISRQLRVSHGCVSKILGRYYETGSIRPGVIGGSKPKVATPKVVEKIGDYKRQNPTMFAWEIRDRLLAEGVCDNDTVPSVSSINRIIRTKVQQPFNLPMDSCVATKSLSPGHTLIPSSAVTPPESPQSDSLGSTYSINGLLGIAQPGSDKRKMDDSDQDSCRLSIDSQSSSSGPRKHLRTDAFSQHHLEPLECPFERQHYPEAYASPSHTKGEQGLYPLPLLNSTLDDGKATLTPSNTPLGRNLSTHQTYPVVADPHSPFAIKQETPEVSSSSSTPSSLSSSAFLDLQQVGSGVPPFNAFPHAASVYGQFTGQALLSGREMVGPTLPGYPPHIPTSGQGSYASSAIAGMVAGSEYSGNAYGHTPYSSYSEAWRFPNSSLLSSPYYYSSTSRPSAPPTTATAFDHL", "experiment": "inhibitors of PAX8-driven TPO luciferase reporter, dose response, RMG-I cells, cherry-pick (AID 687027);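 note: luciferase reporter driven by Pax8 target thyroperoxidase promoter measured by SteadyGlo luminescence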", "format": "functional, cell-based"}, "[12]": {"system": "BJ", "experiment": "cytotoxicity toward BJ-TERT fibroblasts, dose response, cell-based, RAS-independent, luminescence (AID 1933)", "format": "functional", "conditions": "Homo sapiens"}, "[13]": {"experiment": "cytotoxicity toward DRD oncogenic fibroblasts, dose response, cell-based, non-viral oncogenic, luminescence (AID 1934)", "format": "functional", "conditions": "Homo sapiens"}, "[14]": {"experiment": "miR-122 activators in hepatoma reporter cells, dose response, cell-based, Huh7 psiCHECK-miR122, Renilla luciferase, cherry-picked (AID 651956);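 note: huh7 hepatoma cells stably carrying a psiCHECK-2 miR-122 sensor plasmid; renilla luciferase signal reporting endogenous miR-122 activity after 48 h compound exposure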", "format": "functional"}, "[15]": {"target": "Heat shock protein HSP 90-alpha (Homo sapiens, UniProt P07900)", "format": "functional, organism-based"}, "[16]": {"target": "T1, Protein RecA (Mycobacterium tuberculosis, UniProt P9WHJ3)", "T1 sequence (P9WHJ3 whole entry)": "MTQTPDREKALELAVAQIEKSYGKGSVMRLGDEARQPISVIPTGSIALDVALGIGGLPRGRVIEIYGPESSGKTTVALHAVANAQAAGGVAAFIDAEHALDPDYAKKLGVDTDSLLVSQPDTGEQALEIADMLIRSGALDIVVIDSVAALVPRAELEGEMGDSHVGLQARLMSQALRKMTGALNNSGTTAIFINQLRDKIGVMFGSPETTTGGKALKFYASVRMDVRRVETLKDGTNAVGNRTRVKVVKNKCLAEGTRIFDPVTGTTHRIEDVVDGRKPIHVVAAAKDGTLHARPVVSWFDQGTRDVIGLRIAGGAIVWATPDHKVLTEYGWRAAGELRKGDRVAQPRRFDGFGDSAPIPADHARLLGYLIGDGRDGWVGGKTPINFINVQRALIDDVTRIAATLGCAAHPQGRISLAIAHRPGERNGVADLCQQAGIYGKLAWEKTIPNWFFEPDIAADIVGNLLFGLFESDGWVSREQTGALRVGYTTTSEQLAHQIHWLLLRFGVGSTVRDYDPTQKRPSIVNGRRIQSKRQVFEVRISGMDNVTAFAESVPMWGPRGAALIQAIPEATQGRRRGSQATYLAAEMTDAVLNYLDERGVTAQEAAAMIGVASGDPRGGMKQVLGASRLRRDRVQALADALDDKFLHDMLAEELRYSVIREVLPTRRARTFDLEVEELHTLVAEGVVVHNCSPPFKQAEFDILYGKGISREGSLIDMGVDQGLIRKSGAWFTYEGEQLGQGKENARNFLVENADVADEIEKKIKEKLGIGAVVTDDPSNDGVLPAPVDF", "experiment": "Fluorescence Cell-Free Homogeneous Dose Retest to Identify Inhibitors of RecA-Intein Splicing Activity. [Related pubchem assays (depositor defined):AID2097, AID2223, AID489010, AID492950]", "format": "functional"}, "[17]": {"experiment": "inhibitors of intracellular T. cruzi replication, confirmation, NIH3T3 host cells, beta-gal luminescence (AID 2044);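 note: luminescent beta-galactosidase reporter signal from transgenic T. cruzi replicating inside host cells; inhibitors lower the luminescence signal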", "format": "functional, cell-based"}, "[18]": {"experiment": "cytotoxicity toward NIH3T3 fibroblasts, dose response, counter-screen, cell-based, ATP luminescence, mouse fibroblasts (AID 2010);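 note: cells exposed to compound for about 90 hours before reading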", "format": "functional"}, "[19]": {"target": "T2, Replicative DNA helicase DnaB (Mycobacterium tuberculosis, UniProt P9WMR3)", "T2 sequence (P9WMR3 whole entry)": "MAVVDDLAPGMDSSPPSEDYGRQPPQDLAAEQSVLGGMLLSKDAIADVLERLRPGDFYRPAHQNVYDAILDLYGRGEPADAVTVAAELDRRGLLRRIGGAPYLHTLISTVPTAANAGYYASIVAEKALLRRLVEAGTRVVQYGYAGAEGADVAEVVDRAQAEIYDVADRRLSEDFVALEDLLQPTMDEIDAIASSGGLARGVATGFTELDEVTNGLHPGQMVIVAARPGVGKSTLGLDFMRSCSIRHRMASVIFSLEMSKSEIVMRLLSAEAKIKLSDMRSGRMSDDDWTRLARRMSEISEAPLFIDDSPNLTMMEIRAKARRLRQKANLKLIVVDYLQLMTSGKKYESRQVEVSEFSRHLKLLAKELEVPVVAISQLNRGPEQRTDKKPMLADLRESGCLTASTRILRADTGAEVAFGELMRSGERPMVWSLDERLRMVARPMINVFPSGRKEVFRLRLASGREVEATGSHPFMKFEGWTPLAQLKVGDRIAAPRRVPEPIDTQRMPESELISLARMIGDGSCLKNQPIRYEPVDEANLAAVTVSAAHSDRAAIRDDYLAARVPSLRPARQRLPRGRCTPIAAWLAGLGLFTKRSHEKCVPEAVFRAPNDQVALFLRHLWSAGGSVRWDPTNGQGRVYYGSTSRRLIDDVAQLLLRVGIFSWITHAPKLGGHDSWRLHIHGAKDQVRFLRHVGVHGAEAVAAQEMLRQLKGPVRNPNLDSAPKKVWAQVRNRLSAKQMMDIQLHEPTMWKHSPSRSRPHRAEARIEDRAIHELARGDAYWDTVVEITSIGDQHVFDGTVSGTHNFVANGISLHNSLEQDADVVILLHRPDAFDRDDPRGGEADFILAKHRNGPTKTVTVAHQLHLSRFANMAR", "experiment": "DnaB intein splicing inhibitors, dose response, biochemical, cell-free fluorescence (AID 449749)", "format": "functional"}, "[20]": {"target": "Genome polyprotein (dengue virus type 2, UniProt P29990)", "sequence (P29990 2492-3391 limits assumed)": "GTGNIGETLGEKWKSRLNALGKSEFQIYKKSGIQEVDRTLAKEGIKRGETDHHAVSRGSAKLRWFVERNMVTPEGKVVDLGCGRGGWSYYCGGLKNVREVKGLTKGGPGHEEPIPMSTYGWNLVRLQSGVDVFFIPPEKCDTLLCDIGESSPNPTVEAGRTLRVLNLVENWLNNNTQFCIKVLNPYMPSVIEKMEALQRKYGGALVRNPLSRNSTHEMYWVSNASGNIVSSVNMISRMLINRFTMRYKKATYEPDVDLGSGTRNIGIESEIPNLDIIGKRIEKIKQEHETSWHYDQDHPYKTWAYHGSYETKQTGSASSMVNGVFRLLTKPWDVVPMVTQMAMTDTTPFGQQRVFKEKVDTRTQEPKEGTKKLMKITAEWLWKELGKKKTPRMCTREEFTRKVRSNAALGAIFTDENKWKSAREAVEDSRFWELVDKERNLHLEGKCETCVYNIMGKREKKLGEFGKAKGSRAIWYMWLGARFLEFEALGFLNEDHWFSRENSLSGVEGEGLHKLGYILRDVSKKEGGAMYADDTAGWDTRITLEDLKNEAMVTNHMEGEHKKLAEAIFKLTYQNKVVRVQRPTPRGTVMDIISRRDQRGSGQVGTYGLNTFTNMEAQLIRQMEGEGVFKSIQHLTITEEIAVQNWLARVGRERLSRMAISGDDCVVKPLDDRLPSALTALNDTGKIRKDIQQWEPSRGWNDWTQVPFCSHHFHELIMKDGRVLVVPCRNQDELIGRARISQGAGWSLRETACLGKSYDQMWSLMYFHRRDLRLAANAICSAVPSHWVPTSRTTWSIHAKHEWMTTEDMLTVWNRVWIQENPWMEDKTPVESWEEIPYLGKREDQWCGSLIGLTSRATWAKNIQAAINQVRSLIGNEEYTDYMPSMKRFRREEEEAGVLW", "experiment": "Dengue-2 NS5 methyltransferase inhibitors, primary screen, biochemical, confirmation dose response (AID 588689)", "format": "functional"}, "[21]": {"system": "Vero", "experiment": "Vero cell cytotoxicity, cytotoxicity control for flavivirus capping enzyme inhibitors (AID 588742)", "format": "functional", "conditions": "Chlorocebus sabaeus"}, "[22]": {"target": "Cytochrome P450 2C9 (Homo sapiens, UniProt P11712)", "sequence (P11712 whole entry)": "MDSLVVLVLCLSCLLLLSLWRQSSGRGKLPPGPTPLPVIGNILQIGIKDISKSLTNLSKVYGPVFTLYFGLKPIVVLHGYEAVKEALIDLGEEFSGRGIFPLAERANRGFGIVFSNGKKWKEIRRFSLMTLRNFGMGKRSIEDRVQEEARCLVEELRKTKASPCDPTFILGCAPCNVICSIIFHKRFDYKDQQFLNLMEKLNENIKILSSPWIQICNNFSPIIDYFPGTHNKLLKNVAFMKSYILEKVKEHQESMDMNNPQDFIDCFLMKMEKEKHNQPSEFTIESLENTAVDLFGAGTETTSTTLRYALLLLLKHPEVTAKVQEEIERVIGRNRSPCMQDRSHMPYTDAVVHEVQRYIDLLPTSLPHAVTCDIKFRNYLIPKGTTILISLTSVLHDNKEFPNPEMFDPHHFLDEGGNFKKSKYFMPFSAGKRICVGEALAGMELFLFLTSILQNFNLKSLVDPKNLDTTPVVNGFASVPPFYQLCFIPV"}},
  "note": "Active and inactive are the calls of the source.",
  "data": [
    {"compound": "CNc1nc2c(c(=O)n(C)c(=O)n2C)n1Cc1ccccc1", "values": [
      {"measurement": "AC50", "setting": "[1]", "value": "> 70 µM (inactive)"},
      {"measurement": "AC50", "setting": "[2]", "value": "10.2 µM (active)"},
      {"measurement": "AC50", "setting": "[3]", "value": "13.9 µM (active)"}
    ]},
    {"compound": "CCCCN(CC)CCCNC(=O)CC1Oc2ccccc2NC1=O", "note": "(stereo not drawn)", "values": [
      {"measurement": "EC50", "setting": "[4]", "value": "92.5 µM (inactive)"},
      {"measurement": "EC50", "setting": "[5]", "value": "3.3 µM (active)"}
    ]},
    {"compound": "CC[C@@]1(O)C(=O)OCc2c1cc1n(c2=O)Cc2cc3c(NC(=O)CN)cccc3nc2-1", "values": [
      {"measurement": "AC50", "setting": "[6]", "value": "0.281 µM (active)"},
      {"measurement": "AC50", "setting": "[7]", "value": "0.618 µM (active)"},
      {"measurement": "EC50", "setting": "[8]", "value": "1.46 µM (active)"},
      {"measurement": "EC50", "setting": "[9]", "value": "0.418 µM (active)"},
      {"measurement": "EC50", "setting": "[10]", "value": "1.2 µM (active)"},
      {"measurement": "AC50", "setting": "[1]", "value": "0.896 µM (active)"},
      {"measurement": "AC50", "setting": "[11]", "value": "1.11 µM (active)"},
      {"measurement": "EC50", "setting": "[12]", "value": "10.3 µM (active)"},
      {"measurement": "AC50", "setting": "[2]", "value": "< 0.26 µM (active)"},
      {"measurement": "EC50", "setting": "[13]", "value": "2.4 µM (active)"},
      {"measurement": "AC50", "setting": "[3]", "value": "14.6 µM (active)"}
    ]},
    {"compound": "Nc1ccc(Oc2ccc(Br)cc2)cc1", "values": [
      {"measurement": "AC50", "setting": "[14]", "value": "0.378 µM (active)"}
    ]},
    {"compound": "O=C(c1cccs1)N1CCN(Cc2ccccc2)CC1", "values": [
      {"measurement": "EC50", "setting": "[4]", "value": "92.4 µM (inactive)"},
      {"measurement": "EC50", "setting": "[5]", "value": "1.02 µM (active)"}
    ]},
    {"compound": "Cc1ccc(CSc2nc3ccsc3c(=O)n2Cc2ccccn2)cc1", "values": [
      {"measurement": "AC50", "setting": "[15]", "value": "5 µM (active)"}
    ]},
    {"compound": "Cn1nc([N+](=O)[O-])c(C(C#N)c2ccccn2)c(Cl)c1=O", "note": "(stereo not drawn)", "values": [
      {"measurement": "EC50", "setting": "[16]", "value": "9.8 µM (active)"},
      {"measurement": "AC50", "setting": "[6]", "value": "5.48 µM (active)"},
      {"measurement": "EC50", "setting": "[17]", "value": "4.82 µM (active)"},
      {"measurement": "EC50", "setting": "[18]", "value": "> 30 µM (not active)"},
      {"measurement": "AC50", "setting": "[19]", "value": "25.8 µM (active)"},
      {"measurement": "IC50", "setting": "[20]", "value": "26.5 µM (active)"},
      {"measurement": "CC50", "setting": "[21]", "value": "12 µM (active)"}
    ]},
    {"compound": "CN(C)/C=C/C(=O)c1ccc(Oc2ccccc2)cc1", "values": [
      {"measurement": "AC50", "setting": "[15]", "value": "4.26 µM (active)"}
    ]},
    {"compound": "CCC(C)(C)n1nnnc1C(C(C)C)N(Cc1ccco1)Cc1cc2cc3c(cc2nc1O)OCO3", "note": "(stereo not drawn)", "values": [
      {"measurement": "AC50", "setting": "[22]", "value": "inconclusive"},
      {"measurement": "CC50", "setting": "[21]", "value": "> 40 µM (active)"}
    ]},
    {"compound": "COc1ccccc1C(=O)NC(CCSC)C(=O)N1CCN(C/C=C/c2ccccc2)CC1", "note": "(stereo not drawn)", "values": [
      {"measurement": "AC50", "setting": "[7]", "value": "4.51 µM (active)"},
      {"measurement": "AC50", "setting": "[1]", "value": "10.7 µM (active)"},
      {"measurement": "AC50", "setting": "[2]", "value": "2.79 µM (active)"},
      {"measurement": "AC50", "setting": "[3]", "value": "12.8 µM (active)"}
    ]},
    {"compound": "CCCC#Cc1ccc2c(c1)O[C@H](CN(C)C(=O)COC)[C@H](C)CN([C@@H](C)CO)S2(=O)=O", "values": [
      {"measurement": "AC50", "setting": "[14]", "value": "1.19 µM (active)"}
    ]},
    {"compound": "C[C@@H]1CN([C@H](C)CO)S(=O)(=O)c2ccc(-c3ccccc3)cc2O[C@@H]1CN(C)C(=O)c1ccc2c(c1)OCO2", "values": [
      {"measurement": "AC50", "setting": "[14]", "value": "27.2 µM (active)"}
    ]},
    {"compound": "Cc1ccc(S(=O)(=O)Nc2ccc3c(c2)CC(=O)N([C@H](C)CO)C[C@H](C)[C@H](CN(C)S(=O)(=O)c2ccccc2)O3)cc1", "values": [
      {"measurement": "AC50", "setting": "[7]", "value": "0.877 µM (active)"},
      {"measurement": "AC50", "setting": "[2]", "value": "2.46 µM (active)"},
      {"measurement": "AC50", "setting": "[3]", "value": "3.38 µM (active)"}
    ]},
    {"compound": "CCCN(CCC)C1CCc2cccc(O)c2C1", "note": "(stereo not drawn)", "values": [
      {"measurement": "EC50", "setting": "[4]", "value": "92.5 µM (inactive)"},
      {"measurement": "EC50", "setting": "[5]", "value": "2.3 µM (active)"}
    ]},
    {"compound": "CC(C(=O)O)c1ccc(C(=O)c2cccs2)cc1", "note": "(stereo not drawn) [SUPROFEN]", "values": [
      {"measurement": "EC50", "setting": "[4]", "value": "92.6 µM (inactive)"},
      {"measurement": "EC50", "setting": "[5]", "value": "5.34 µM (active)"}
    ]}
  ]
}
